Test results taken from publication PMC2248166, “Quantitative peptide binding motifs for 19 human and mouse MHC class I molecules derived using positional scanning combinatorial peptide libraries” (Immunome Research, 2008).
Where a SMILES comes first, the peptide text is derived from it.

Target: HLA A*3201 (Homo sapiens, UniProt P04439, A270S/D101S/D185E/E176V/E277Q/F133L/G103R/G107R/G231S/H175R/I121M/I218V/I322F/K168Q/L105A/L300P/L318F/M331R/P208A/P217A/Q94H/R106L/R138Q/S129P/T104I/T323A/T345S/V100E/V321M/V358M)
Assay: biochemical
Assay type: binding

Going from CC[C@H](C)[C@H](N)C(=O)N[C@H](C(=O)N[C@@H](Cc1ccc(O)cc1)C(=O)NCC(=O)N[C@@H](CCCNC(=N)N)C(=O)N[C@@H](CO)C(=O)N[C@@H](CC(N)=O)C(=O)N[C@@H](C)C(=O)N[C@H](C(=O)O)[C@@H](C)CC)C(C)C [3102.0369] (H-IVYGRSNAI-OH) to CC[C@H](C)[C@H](NC(=O)[C@H](CO)NC(=O)[C@@H](NC(=O)CNC(=O)[C@H](Cc1ccccc1)NC(=O)[C@H](CO)NC(=O)[C@H](CC(N)=O)NC(=O)[C@H](CC(C)C)NC(=O)[C@@H](N)CCCCN)C(C)C)C(=O)O [3102.0496] (H-KLNSFGVSI-OH), the IC50 falls from 3.2 nM to 0.55 nM (5.8-fold).

Going from CC[C@H](C)[C@H](NC(=O)CNC(=O)[C@@H](NC(=O)[C@H](C)NC(=O)[C@@H](NC(=O)[C@H](CCCNC(=N)N)NC(=O)[C@H](CCSC)NC(=O)[C@H](CC(C)C)NC(=O)[C@@H](N)CCSC)C(C)C)C(C)C)C(=O)O [3102.0437] (H-MLMRVAVGI-OH) to CC[C@H](C)[C@H](NC(=O)[C@@H](NC(=O)[C@H](CC(C)C)NC(=O)[C@H](CO)NC(=O)[C@H](C)NC(=O)CNC(=O)[C@H](CC(N)=O)NC(=O)[C@H](CO)NC(=O)[C@@H](N)CC(C)C)[C@@H](C)O)C(=O)O [3102.0383] (H-LSNGASLTI-OH), the IC50 rises from 0.69 nM to 74 nM (110-fold). The first is the more potent here.

First: CC[C@H](C)[C@H](NC(=O)[C@@H]1CCCN1C(=O)[C@H](CC(C)C)NC(=O)[C@@H](NC(=O)[C@H](CC(N)=O)NC(=O)[C@H](Cc1ccc(O)cc1)NC(=O)[C@H](CCSC)NC(=O)[C@@H](NC(=O)[C@@H](N)Cc1ccc(O)cc1)[C@@H](C)CC)[C@@H](C)CC)C(=O)O [3102.0384] (H-YIMYNILPI-OH)
Second: CC[C@H](C)[C@H](N)C(=O)N[C@@H](CC(C)C)C(=O)N1CCC[C@H]1C(=O)N[C@H](C(=O)N[C@H](C(=O)N[C@@H](Cc1ccccc1)C(=O)N[C@@H](CC(C)C)C(=O)N[C@@H](CO)C(=O)N[C@H](C(=O)O)[C@@H](C)CC)[C@@H](C)CC)C(C)C [3102.0375] (H-ILPVIFLSI-OH)
The IC50 of the first is 8.7-fold higher: 39 nM for the first, 4.5 nM for the second.

First: CC[C@H](C)[C@H](NC(=O)[C@H](CCCCN)NC(=O)[C@H](CC(C)C)NC(=O)[C@@H](NC(=O)[C@H](Cc1ccc(O)cc1)NC(=O)[C@H](CC(N)=O)NC(=O)[C@H](CC(N)=O)NC(=O)[C@H](CC(C)C)NC(=O)[C@@H](N)CC(C)C)[C@@H](C)O)C(=O)O [3102.0521] (H-LLNNYTLKI-OH)
Second: CC[C@H](C)[C@H](NC(=O)[C@@H](N)CCCCN)C(=O)N[C@@H](CC(N)=O)C(=O)N[C@@H](CCSC)C(=O)N[C@@H](CCC(N)=O)C(=O)N[C@H](C(=O)N[C@@H](CC(C)C)C(=O)N[C@@H](CC(C)C)C(=O)N[C@@H](Cc1ccccc1)C(=O)O)[C@@H](C)O [3102.0488] (H-KINMQTLLF-OH)
The IC50 of the first is 2.5-fold higher: 25 nM for the first, 10 nM for the second.

Compared with CC[C@H](C)[C@H](N)C(=O)N[C@H](C(=O)N[C@@H](CC(N)=O)C(=O)N[C@@H](CCCCN)C(=O)N[C@@H](Cc1ccccc1)C(=O)N[C@@H](Cc1ccccc1)C(=O)N[C@@H](CCC(=O)O)C(=O)N[C@H](C(=O)N[C@H](C(=O)O)[C@@H](C)CC)C(C)C)[C@@H](C)CC [3102.0325] (H-IINKFFEVI-OH), CC[C@H](C)[C@H](NC(=O)[C@H](CC(N)=O)NC(=O)[C@H](Cc1ccccc1)NC(=O)[C@@H](NC(=O)[C@H](CCCCN)NC(=O)[C@H](Cc1ccccc1)NC(=O)[C@H](CC(N)=O)NC(=O)[C@@H](NC(=O)[C@H](C)N)[C@@H](C)CC)[C@@H](C)CC)C(=O)O [3102.0489] (H-AINFKIFNI-OH) is 2-fold higher in IC50: 11 nM for the first, 22 nM for the second. The first is the more potent here.

First: CC[C@H](C)[C@H](NC(=O)[C@@H](N)CCCCN)C(=O)N[C@@H](CC(=O)O)C(=O)N[C@@H](CC(N)=O)C(=O)N[C@@H](Cc1ccc(O)cc1)C(=O)N[C@H](C(=O)N[C@H](C(=O)N[C@@H](CCCCN)C(=O)N[C@@H](Cc1ccccc1)C(=O)O)C(C)C)C(C)C [3102.0414] (H-KIDNYVVKF-OH)
Second: CC[C@H](C)[C@H](NC(=O)[C@@H](NC(=O)[C@H](Cc1ccc(O)cc1)NC(=O)[C@H](CO)NC(=O)[C@@H](N)CCCCN)[C@@H](C)O)C(=O)N[C@@H](CCCNC(=N)N)C(=O)N[C@H](C(=O)N[C@@H](Cc1ccccc1)C(=O)N[C@@H](Cc1ccccc1)C(=O)O)C(C)C [3102.0345] (H-KSYTIRVFF-OH)
The IC50 of the first is 17-fold higher: 19 nM for the first, 1.1 nM for the second.

First: CC[C@H](C)[C@H](NC(=O)[C@H](CO)NC(=O)[C@H](CCCCN)NC(=O)[C@H](Cc1ccccc1)NC(=O)[C@H](CC(C)C)NC(=O)[C@@H](NC(=O)[C@@H](N)CCSC)[C@@H](C)O)C(=O)N[C@@H](CC(C)C)C(=O)N[C@@H](Cc1ccccc1)C(=O)O [3102.0443] (H-MTLFKSILF-OH)
Second: CC[C@H](C)[C@H](NC(=O)[C@H](CC(C)C)NC(=O)[C@H](Cc1ccccc1)NC(=O)[C@@H](NC(=O)[C@@H](N)CCCNC(=N)N)[C@@H](C)O)C(=O)N[C@@H](CC(=O)O)C(=O)N[C@@H](CC(C)C)C(=O)N[C@@H](C)C(=O)N[C@@H](Cc1ccccc1)C(=O)O [3102.0420] (H-RTFLIDLAF-OH)
The IC50 of the first is 23-fold higher: 11 nM for the first, 0.48 nM for the second. The second is the more potent here.

CC(C)C[C@H](NC(=O)[C@@H](NC(=O)[C@@H](NC(=O)[C@@H](NC(=O)[C@@H](NC(=O)[C@@H](NC(=O)[C@H](CC(C)C)NC(=O)[C@@H](NC(=O)[C@@H](N)CCCCN)[C@@H](C)O)[C@@H](C)O)[C@@H](C)O)[C@@H](C)O)C(C)C)C(C)C)C(=O)O [3102.0381] (H-KTLTTTVVL-OH) and CC[C@H](C)[C@H](NC(=O)[C@@H](NC(=O)[C@@H](NC(=O)[C@@H](NC(=O)[C@@H](NC(=O)[C@@H](NC(=O)[C@H](CC(N)=O)NC(=O)[C@@H](NC(=O)[C@@H](N)C(C)C)[C@@H](C)O)C(C)C)[C@@H](C)CC)[C@@H](C)CC)[C@@H](C)CC)C(C)C)C(=O)O [3102.0336] (H-VTNVIIIVI-OH) are within 1.5-fold of each other in IC50: 9.4 nM for the first, 14 nM for the second.

Compared with CC[C@H](C)[C@H](NC(=O)[C@H](CCC(=O)O)NC(=O)[C@H](CS)NC(=O)[C@@H](NC(=O)[C@@H](N)CO)[C@@H](C)CC)C(=O)N[C@H](C(=O)N[C@@H](Cc1ccc(O)cc1)C(=O)N[C@@H](CO)C(=O)N[C@@H](Cc1ccccc1)C(=O)O)C(C)C [3102.0440] (H-SICEIVYSF-OH), CC[C@H](C)[C@H](NC(=O)[C@H](CO)NC(=O)[C@H](CC(C)C)NC(=O)[C@@H](NC(=O)[C@H](Cc1ccccc1)NC(=O)[C@H](CC(N)=O)NC(=O)[C@H](CCC(=O)O)NC(=O)[C@@H](NC(=O)[C@@H](N)CCCNC(=N)N)[C@@H](C)O)C(C)C)C(=O)O [3102.0421] (H-RTENFVLSI-OH) is 4.6-fold higher in IC50: 0.35 nM for the first, 1.6 nM for the second. The first is the more potent here.

CSCC[C@H](NC(=O)[C@H](Cc1ccc(O)cc1)NC(=O)[C@H](Cc1ccccc1)NC(=O)[C@H](CC(C)C)NC(=O)[C@@H](N)CCSC)C(=O)N[C@@H](CC(=O)O)C(=O)N[C@@H](CC(C)C)C(=O)N[C@@H](CO)C(=O)N[C@@H](Cc1ccc(O)cc1)C(=O)O [3102.0347] (H-MLFYMDLSY-OH) and CC[C@H](C)[C@H](NC(=O)[C@H](CC(C)C)NC(=O)[C@@H](NC(=O)[C@H](CC(N)=O)NC(=O)[C@H](CC(N)=O)NC(=O)[C@H](CO)NC(=O)[C@H](Cc1ccccc1)NC(=O)[C@H](CCSC)NC(=O)[C@@H](N)CCCCN)C(C)C)C(=O)O [3102.0427] (H-KMFSNNVLI-OH) are within 1.5-fold of each other in IC50: 1.2 nM for the first, 1.1 nM for the second.

First: CC[C@H](C)[C@H](NC(=O)[C@H](CC(C)C)NC(=O)[C@H](Cc1c[nH]cn1)NC(=O)[C@H](Cc1ccccc1)NC(=O)[C@H](CC(N)=O)NC(=O)[C@H](Cc1ccccc1)NC(=O)[C@@H](NC(=O)[C@@H](NC(=O)[C@@H](N)CCCNC(=N)N)[C@@H](C)O)[C@@H](C)CC)C(=O)O [3102.0342] (H-RTIFNFHLI-OH)
Second: CC[C@H](C)[C@H](NC(=O)[C@H](CO)NC(=O)[C@@H](NC(=O)[C@H](CCCCN)NC(=O)CNC(=O)[C@H](Cc1ccccc1)NC(=O)[C@H](Cc1ccccc1)NC(=O)[C@@H](NC(=O)[C@@H](N)CCCNC(=N)N)[C@@H](C)CC)[C@@H](C)O)C(=O)O [3102.0433] (H-RIFFGKTSI-OH)
The IC50 of the first is 1.6-fold higher: 2.1 nM for the first, 1.3 nM for the second.

Compared with CC[C@H](C)[C@H](NC(=O)CNC(=O)[C@H](CC(N)=O)NC(=O)[C@H](CO)NC(=O)[C@@H](NC(=O)CNC(=O)[C@H](CC(N)=O)NC(=O)[C@@H](NC(=O)CN)[C@@H](C)O)[C@@H](C)CC)C(=O)O [3102.0439] (H-GTNGISNGI-OH), CC[C@H](C)[C@H](NC(=O)[C@H](CCC(=O)O)NC(=O)[C@H](Cc1ccccc1)NC(=O)[C@H](CC(N)=O)NC(=O)[C@@H]1CCCN1C(=O)[C@H](CC(N)=O)NC(=O)[C@H](Cc1ccccc1)NC(=O)[C@@H](NC(=O)[C@@H](N)CC(C)C)[C@@H](C)O)C(=O)O [3102.0377] (H-LTFNPNFEI-OH) is 3.8-fold lower in IC50: 20 nM for the first, 5.2 nM for the second. The second is the more potent here.

CC[C@H](C)[C@H](N)C(=O)N[C@H](C(=O)N[C@H](C(=O)N[C@@H](Cc1ccccc1)C(=O)N[C@@H](Cc1ccccc1)C(=O)N[C@H](C(=O)N[C@H](C(=O)N[C@@H](CC(C)C)C(=O)N[C@H](C(=O)O)[C@@H](C)CC)C(C)C)[C@@H](C)CC)[C@@H](C)CC)[C@@H](C)CC [3102.0435] (H-IIIFFIVLI-OH) and CC[C@H](C)[C@H](N)C(=O)N[C@@H](CC(C)C)C(=O)N[C@H](C(=O)N[C@H](C(=O)N[C@@H](Cc1ccccc1)C(=O)N[C@H](C(=O)N[C@H](C(=O)N[C@@H](C)C(=O)N[C@H](C(=O)O)[C@@H](C)CC)C(C)C)[C@@H](C)O)[C@@H](C)CC)C(C)C [3102.0411] (H-ILVIFTVAI-OH) are within 1.5-fold of each other in IC50: 14 nM for the first, 15 nM for the second.

Compared with CC[C@H](C)[C@H](NC(=O)[C@H](Cc1c[nH]cn1)NC(=O)[C@@H](NC(=O)[C@H](CO)NC(=O)[C@@H](NC(=O)[C@H](C)NC(=O)[C@H](CO)NC(=O)[C@H](CC(C)C)NC(=O)[C@@H](N)CO)C(C)C)C(C)C)C(=O)O [3102.0349] (H-SLSAVSVHI-OH), CC[C@H](C)[C@H](NC(=O)[C@H](CO)NC(=O)[C@H](CCC(N)=O)NC(=O)[C@H](CCC(N)=O)NC(=O)[C@H](CC(C)C)NC(=O)[C@H](Cc1ccccc1)NC(=O)[C@H](CC(C)C)NC(=O)[C@@H](NC(=O)[C@@H](N)CCCCN)C(C)C)C(=O)O [3102.0312] (H-KVLFLQQSI-OH) is 49-fold lower in IC50: 34 nM for the first, 0.7 nM for the second.

Molecule CSCC[C@H](NC(=O)[C@@H](NC(=O)[C@@H](N)CCCCN)[C@@H](C)O)C(=O)N[C@@H](C)C(=O)N1CCC[C@H]1C(=O)N[C@H](C(=O)N[C@@H](Cc1c[nH]cn1)C(=O)N[C@H](C(=O)N[C@@H](Cc1ccc(O)cc1)C(=O)O)[C@@H](C)O)C(C)C [3102.0458] (H-KTMAPVHTY-OH) has an IC50 of 4.6 nM.
